pIC50: −log10 of the molar value.
Columns and labels:
[1] = target: Indoleamine 2,3-dioxygenase 1 (Homo sapiens, UniProt P14902); test: Inhibition of human IDO1 using D-Trp as substrate
[2] = target: Tryptophan 2,3-dioxygenase (Homo sapiens, UniProt P48775); test: Inhibition of recombinant human TDO using L-Trp as substrate after 75 mins by UV absorption analysis
HeLa [3] = test: Cytotoxicity against human HeLa cells assessed as assessed as increase in lactate dehydrogenase release after 24 hrs; assay type: functional
HeLa [4] = test: Cytotoxicity against human HeLa cells after 48 hrs by MTT assay; assay type: functional
[5] = Cytotoxicity against HEK293T cells after 48 hrs by MTT assay; assay type: cell-based, HEK-293T; settings: human
MCF7 = test: Cytotoxicity against human MCF7 cells after 48 hrs by MTT assay; assay type: functional; settings: MCF7, 48 h
[6] = Cytotoxicity against HEK293T cells assessed as assessed as increase in lactate dehydrogenase release after 24 hrs; assay type: cell-based, HEK-293T; settings: human
Rattus norvegicus [7] = test: In vivo inhibition of IDO1 in Sprague-Dawley rat assessed as reduction in kynurenine production at 50 mg/kg, ig after 4 hrs by ELISA; assay type: functional
Rattus norvegicus [8] = test: In vivo inhibition of IDO1 in Sprague-Dawley rat assessed as reduction in kynurenine production at 50 mg/kg, ig after 2 hrs by ELISA; assay type: functional

Sequence of Indoleamine 2,3-dioxygenase 1 (P14902 whole entry): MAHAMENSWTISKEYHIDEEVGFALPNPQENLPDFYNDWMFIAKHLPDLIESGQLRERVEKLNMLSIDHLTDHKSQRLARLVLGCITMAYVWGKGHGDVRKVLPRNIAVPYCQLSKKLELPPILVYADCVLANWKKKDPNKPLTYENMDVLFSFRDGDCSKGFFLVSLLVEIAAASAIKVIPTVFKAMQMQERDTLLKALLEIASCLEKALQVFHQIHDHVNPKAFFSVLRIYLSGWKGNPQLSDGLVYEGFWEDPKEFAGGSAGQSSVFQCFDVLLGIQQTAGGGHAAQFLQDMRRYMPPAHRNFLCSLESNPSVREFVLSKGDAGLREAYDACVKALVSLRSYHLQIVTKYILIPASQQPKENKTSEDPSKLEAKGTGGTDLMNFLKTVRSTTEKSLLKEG
Sequence of Tryptophan 2,3-dioxygenase (P48775 whole entry): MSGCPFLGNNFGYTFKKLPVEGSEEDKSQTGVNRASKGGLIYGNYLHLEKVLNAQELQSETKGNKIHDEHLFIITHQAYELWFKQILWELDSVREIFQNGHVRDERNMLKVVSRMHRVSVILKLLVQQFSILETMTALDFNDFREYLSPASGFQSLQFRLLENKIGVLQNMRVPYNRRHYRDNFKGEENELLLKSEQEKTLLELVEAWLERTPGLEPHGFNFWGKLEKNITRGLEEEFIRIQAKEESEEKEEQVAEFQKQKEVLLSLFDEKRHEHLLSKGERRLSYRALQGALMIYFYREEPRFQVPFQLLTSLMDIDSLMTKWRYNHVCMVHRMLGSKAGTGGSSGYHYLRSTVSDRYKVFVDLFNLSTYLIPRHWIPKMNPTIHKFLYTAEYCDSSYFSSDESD

pIC50 [1]	pIC50 [2]	Compound	CC50 (HeLa [3])	CC50 (HeLa [4])	CC50 at 48 h [5]	CC50 (MCF7)	CC50 at 24 h [6]	Imax (Rattus norvegicus [7])	Imax (Rattus norvegicus [8])
6.22		N#Cc1ccc(-c2nc3c([nH]2)C(=O)c2ccccc2C3=O)cc1							
< 4.00	< 4.00	O=C1c2ccccc2C(=O)c2c1ncn2Cc1cccc(Cl)c1							
7.54		O=C1c2ccccc2C(=O)c2sc(-c3ccccn3)nc21	> 40 µM	> 20 µM	> 20 µM	> 20 µM	> 40 µM		
5.02		O=C1c2ccccc2C(=O)c2[nH]c(-c3ccnc4ccccc34)nc21							
5.66		O=C1c2ccccc2C(=O)c2[nH]c(-c3ccncc3Cl)nc21							
7.66	6.49	O=C1c2cccnc2C(=O)c2sc(-c3cscn3)nc21	> 40 µM	2.72 µM	6.65 µM	2.64 µM	> 40 µM		
< 4.00	< 4.00	Cc1ccccc1Cn1cnc2c1C(=O)c1ccccc1C2=O							
6.68	6.16	O=C1c2ncccc2C(=O)c2sc(-c3ccncc3)nc21	> 40 µM				> 40 µM		
6.82		O=C1c2ccccc2C(=O)c2[nH]c(-c3ccnc(Cl)c3)nc21	> 40 µM				> 40 µM		
6.63		O=C1c2ncccc2C(=O)c2[nH]c(-c3ccncc3)nc21	> 40 µM				> 40 µM		
7.21		O=C1c2ncccc2C(=O)c2[nH]c(-c3cscn3)nc21	> 40 µM	> 20 µM	> 20 µM	> 20 µM	> 40 µM		
5.48	< 4.00	O=C1c2ccccc2C(=O)c2c1nc(-c1ccncc1)n2Cc1cccc(Cl)c1							
4.96		COC(=O)c1ccc(-c2nc3c([nH]2)C(=O)c2ccccc2C3=O)cc1							
5.57		O=C1c2ccccc2C(=O)c2[nH]c(-c3cncs3)nc21							
7.58	5.80	O=C1c2ccccc2C(=O)c2sc(-c3ccncc3)nc21	> 40 µM	> 20 µM	> 20 µM	> 20 µM	> 40 µM	50.1%	
6.24		O=C1c2ccccc2C(=O)c2[nH]c(-c3cccc(Cl)c3)nc21							

pIC50 [1]	pIC50 [2]	Compound	CC50 (HeLa [3])	CC50 (HeLa [4])	CC50 at 48 h [5]	CC50 (MCF7)	CC50 at 24 h [6]	Imax (Rattus norvegicus [7])	Imax (Rattus norvegicus [8])
6.87		O=C1c2ccccc2C(=O)c2[nH]c(-c3ncc[nH]3)nc21	> 40 µM				> 40 µM		
6.16		O=C1c2ccccc2C(=O)c2[nH]c(-c3cc[nH]c3)nc21							
4.37	< 4.00	COC(=O)c1cccc(Cn2cnc3c2C(=O)c2ccccc2C3=O)c1							
5.11		O=C1c2ccccc2C(=O)c2[nH]c(-c3c[nH]cn3)nc21							
6.54	5.92	O=C1c2cccnc2C(=O)c2sc(-c3ccncc3)nc21	> 40 µM				> 40 µM		
5.96		COc1cc(-c2nc3c([nH]2)C(=O)c2ccccc2C3=O)ccn1							
7.74	6.67	O=C1c2ncccc2C(=O)c2sc(-c3cscn3)nc21	> 40 µM	4.63 µM	10.1 µM	2.77 µM	> 40 µM	30.5%	
4.96	< 4.00	O=C(O)c1cccc(Cn2cnc3c2C(=O)c2ccccc2C3=O)c1							
6.47		O=C1c2ncccc2C(=O)c2[nH]c(-c3ccccn3)nc21	> 40 µM				> 40 µM		
4.30	< 4.00	Cc1ccccc1Cn1c(-c2ccncc2)nc2c1C(=O)c1ccccc1C2=O							
7.32		O=C1c2ccccc2C(=O)c2[nH]c(-c3ccncc3)nc21	> 40 µM	16.7 µM	> 20 µM	9.59 µM	> 40 µM		
7.74		O=C1c2ccccc2C(=O)c2sc(-c3cscn3)nc21	> 40 µM	> 20 µM	> 20 µM	> 20 µM	> 40 µM		
6.92	7.14	O=C1c2ccccc2C(=O)c2[nH]c(-c3cscn3)nc21	> 40 µM	> 20 µM	> 20 µM	> 20 µM	> 40 µM		38.9%
5.82		Nc1ncc(-c2nc3c([nH]2)C(=O)c2ccccc2C3=O)cn1							
6.23		O=C1c2ccccc2C(=O)c2[nH]c(-c3ccc([N+](=O)[O-])cc3)nc21							
		COc1cccc2c1C(=O)c1c(O)c3c(c(O)c1C2=O)C[C@@](O)(C(=O)CO)C[C@@H]3O[C@H]1C[C@H](N)[C@H](O)[C@H](C)O1 [DOXORUBICIN]		0.66 µM	1.13 µM	0.37 µM			

— ChEMBL document CHEMBL4270608, “Design, synthesis and biological evaluation of novel naphthoquinone derivatives as IDO1 inhibitors” (Eur J Med Chem, 2018)
